This note sets out measurements from patent US8748452B2, “Indolizine derivative and use thereof for medical purposes” (Kissei Pharmaceutical Co., Ltd., priority 2009, dated 2014).

In assay [1] the target is T1, Xanthine oxidase (from bovine milk, Sigma) (Bos taurus, UniProt P80457).
T1 construct: Xanthine oxidase (from bovine milk, Sigma); purchased Sigma; host or cells: bovine milk
Put plainly: Xanthine oxidase inhibitory activity. In kind it is biochemical. The following applies: xanthine oxidase from bovine milk 0.02 units/mL, xanthine 200 μM, 10 minutes at room temperature, absorbance at 290 nm. On the procedure:
(1) Preparation of test compounds
Test compounds were dissolved in DMSO (Wako pure chemical) at 40 mM concentration and then diluted to intended concentrations with phosphate-buffered saline (PBS).
(2) Method for measurement
Xanthine oxidase (from bovine milk, Sigma) was prepared with phosphate-buffered saline (PBS) at 0.02 units/mL, and then the solution was added to 96 well plates at 50 μL/well. In addition, test compounds diluted with PBS were added at 50 μL/well. Xanthine (Wako pure chemical) at 200 μM prepared with PBS was added at 100 μL/well, and the mixture was reacted for 10 minutes at room temperature. Absorbance at 290 nm was measured using a microplate reader SpectraMax Plus 384 (Molecular device). The absorbance under a condition without xanthine is 0%, and control without test compounds is 100%. Fifty % inhibitory concentration (IC50) of test compounds was calculated (Table 17). Ex. No. in the table indicates Example number.

For a further assay, the target named is T2, human URAT1 (Homo sapiens, UniProt Q96S37).
T2 construct: expressed in transfected cells; host or cells: COS7 cells (RIKEN CELL BANK RCB0539), transient, pcDNA3.1
T2 sequence (Q96S37 1-553): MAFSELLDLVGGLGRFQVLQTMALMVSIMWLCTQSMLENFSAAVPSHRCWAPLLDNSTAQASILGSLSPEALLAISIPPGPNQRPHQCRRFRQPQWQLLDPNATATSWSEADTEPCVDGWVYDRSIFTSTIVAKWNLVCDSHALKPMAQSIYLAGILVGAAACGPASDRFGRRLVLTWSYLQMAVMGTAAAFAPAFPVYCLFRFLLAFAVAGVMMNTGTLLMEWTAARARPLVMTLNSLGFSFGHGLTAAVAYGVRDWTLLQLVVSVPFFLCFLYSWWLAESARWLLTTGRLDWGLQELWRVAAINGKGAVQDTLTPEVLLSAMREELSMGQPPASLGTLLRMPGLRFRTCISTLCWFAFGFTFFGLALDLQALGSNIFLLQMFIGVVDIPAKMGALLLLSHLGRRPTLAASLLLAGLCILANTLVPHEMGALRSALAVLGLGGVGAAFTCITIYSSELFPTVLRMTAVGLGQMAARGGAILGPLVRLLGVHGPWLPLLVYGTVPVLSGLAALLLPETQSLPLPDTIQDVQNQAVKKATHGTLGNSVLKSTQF
The assay is described as follows: Inhibitory activity of uric acid transport with human URAT1 expressing cells. In kind it is cell-based. To be noted: COS-7; concentration of 10 μM; 14C-labeled uric acid 20 μM, 5 minutes uptake, COS7 cells transiently expressing human URAT1. On the procedure: (1) Preparation of transiently human URAT1 expressing cells
Full length human URAT1 cDNA (NCBI Accession No. NM_144585) was subcloned into expression vector, pcDNA3.1 (Invitrogen). Human URAT1 expression vector was transfected into COS7 cells (RIKEN CELL BANK RCB0539) using Lipofectamine 2000 (Invitrogen). COS7 cells were seeded in collagen-coated 24 well plates (Beckton Dickinson) at 3×10^5 cells / well and cultured in D-MEM culture medium (Invitrogen) containing 10% fetal bovine serum (Sanko Junyaku) for 2 hours at 37° C. under the condition of 5% CO2. For 1 well, 2 μL of Lipofectamine 2000 was diluted in 50 μL of OPTI-MEM (Invitrogen) and allowed to stand at room temperature for 7 minutes (hereinafter referred to as Lipo2000-OPTI). For 1 well, 0.8 μg of human URAT1 expression vector was diluted in 50 μL of OPTI-MEM (Invitrogen) and combined gently with Lipo2000-OPTI. After standing at room temperature for 25 minutes, the mixture was added to COS7 cells at 100 μL/well. Furthermore, COS7 cells were cultured for 2 days at 37° C. under the condition of 5% CO2 and used for measuring inhibitory activity on the uptake.
(2) Preparation of test compounds
Test compounds were dissolved in DMSO (Wako pure chemical) at 10 mM concentration and then diluted to 2 times higher concentration than intended with pre-treatment buffer (125 mM sodium gluconate, 4.8 mM potassium gluconate, 1.2 mM potassium dihydrogen phosphate, 1.2 mM magnesium sulfate, 1.3 mM calcium gluconate, 5.6 mM glucose, 25 mM Hepes, pH 7.4). Pre-treatment buffer without test compounds was used for control. In addition, an equal volume of pre-treatment buffer containing ^14C-labeled uric acid (American Radiolabeled Chemicals, Inc.) was added to test compounds and control, and finally assay buffer including 20 μM uric acid was prepared.
(3) Method for measurement
All tests were performed on hot-plate at 37° C. Pre-treatment buffer and assay buffer were incubated at 37° C. and then used for assays. Medium was removed from plates, and 700 μL of pre-treatment buffer was added, and the cells were pre-incubated for 10 minutes. After repeating the same step, pre-treatment buffer was removed, and assay buffer was added at 400 μL/well. The uptake reaction was carried out for 5 minutes. After terminating the reaction, assay buffer was rapidly removed, and the cells were washed twice with addition of ice-cold pre-treatment buffer at 1.2 mL/well. Then, the cells were lysed by addition of 0.2 mol/L sodium hydroxide at 300 μL/well. The lysed solutions were transferred into Picoplate (PerkinElmer), and Microscinti 40 (PerkinElmer) was added at 600 μL/well. After mixing, the radioactivity was counted in a liquid scintillation counter (PerkinElmer). The radioactivity in COS7 cells not transfected with URAT1 expression vector was also counted under the same condition as control. As a result, it was shown that compounds of Examples 5, 8, 17, 18, 22, 40 and 55 have inhibitory activity of 50% or higher in a concentration of 10 μM.

A further assay has as its system male CD (SD) IGS rats. Put plainly: Serum hypouricemic effect. In kind it is in vivo. To be noted: Rattus norvegicus; 1 mg/kg oral gavage, overnight fasted male rats, serum at 2 hours after administration; read-out: percent decrease in uric acid. As for the experimental part:
Test compounds at 1 mg/kg suspended in 0.5% methylcellulose solution were administered by oral gavage administration to overnight fasted male CD (SD) IGS rats (5-week-old, Charls River Japan). At 2 hours after administration, blood was collected under ether anesthesia from abdominal aorta, and serum was separated according to general method. Serum uric acid values were determined by use of uric acid measurement kit (Uric acid C-Test Wako: Wako pure chemical), and percent decrease in uric acid was calculated according to the formula described below. As a result, it was shown that compounds of Examples 2, 7, 10, 22, 23, 25, 37, 49, 50 and 58 have over 60% percent decrease in uric acid.
Percent decrease in uric acid (%)=(Serum uric acid values in control animals−Serum uric acid values in animals administered test compounds)×100/Serum uric acid values in control animals

T1 sequence (P80457 whole entry): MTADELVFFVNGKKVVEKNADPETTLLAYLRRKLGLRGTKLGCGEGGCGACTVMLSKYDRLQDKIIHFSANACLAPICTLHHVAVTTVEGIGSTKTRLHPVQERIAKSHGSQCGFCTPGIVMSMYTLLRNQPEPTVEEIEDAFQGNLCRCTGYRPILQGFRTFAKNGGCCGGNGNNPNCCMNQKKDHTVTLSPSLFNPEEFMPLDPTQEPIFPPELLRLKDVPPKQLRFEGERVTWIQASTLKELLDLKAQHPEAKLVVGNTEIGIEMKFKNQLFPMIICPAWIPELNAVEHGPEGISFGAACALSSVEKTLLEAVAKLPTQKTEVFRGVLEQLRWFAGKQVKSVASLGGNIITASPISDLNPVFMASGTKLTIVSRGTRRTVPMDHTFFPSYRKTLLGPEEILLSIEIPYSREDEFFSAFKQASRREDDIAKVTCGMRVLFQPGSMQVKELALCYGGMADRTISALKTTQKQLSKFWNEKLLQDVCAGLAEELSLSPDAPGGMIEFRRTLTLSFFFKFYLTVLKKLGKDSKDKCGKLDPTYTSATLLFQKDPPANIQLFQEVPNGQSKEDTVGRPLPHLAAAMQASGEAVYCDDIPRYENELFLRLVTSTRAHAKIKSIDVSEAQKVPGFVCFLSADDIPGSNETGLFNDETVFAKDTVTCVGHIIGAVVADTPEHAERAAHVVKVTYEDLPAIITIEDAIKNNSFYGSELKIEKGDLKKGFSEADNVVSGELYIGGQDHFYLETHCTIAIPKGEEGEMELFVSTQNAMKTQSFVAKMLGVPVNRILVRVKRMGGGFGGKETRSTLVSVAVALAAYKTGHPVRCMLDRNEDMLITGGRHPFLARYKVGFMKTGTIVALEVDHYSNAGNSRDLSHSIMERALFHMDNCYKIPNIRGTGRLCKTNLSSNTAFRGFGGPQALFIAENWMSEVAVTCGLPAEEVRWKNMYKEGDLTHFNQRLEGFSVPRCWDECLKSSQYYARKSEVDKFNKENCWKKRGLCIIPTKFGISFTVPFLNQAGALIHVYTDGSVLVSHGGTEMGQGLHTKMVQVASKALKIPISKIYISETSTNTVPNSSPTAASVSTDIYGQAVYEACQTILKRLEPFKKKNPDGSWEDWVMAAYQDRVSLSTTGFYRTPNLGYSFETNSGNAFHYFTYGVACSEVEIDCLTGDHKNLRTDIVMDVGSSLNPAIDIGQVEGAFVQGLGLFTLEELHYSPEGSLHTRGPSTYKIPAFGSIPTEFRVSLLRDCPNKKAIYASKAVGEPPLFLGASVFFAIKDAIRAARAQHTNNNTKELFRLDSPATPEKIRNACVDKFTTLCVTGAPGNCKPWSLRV

As a reminder, the IC50 is the concentration that gives 50% inhibition. Low values mean higher potency, high ones lower potency. One may read the inhibition as the share of the control response that was lost under treatment. Read a high inhibition as a strong effect. Regarding `Cc1cc2c(C#N)cc(-c3ccc(C(=O)O)cc3)n2cc1F` [Example 8], the IC50 in assay [1] is 6 nM. Further, the inhibition at 10 µM on human URAT1 was not below 50%.
Consider `Cc1cc2c(C#N)cc(-c3ccc(C(=O)O)c(O)c3)n2cc1F` [Example 22], for which, in the assay with male CD (SD) IGS rats, the inhibition in vivo at 1 mg/kg is more than 60%. For the same compound, the IC50 in assay [1] came out at 3 nM. The compound further returned an inhibition at 10 µM at human URAT1 not below 50%.
Regarding `N#Cc1cc(-c2ccc(C(=O)O)cc2)n2cc(F)cc(F)c12` [Example 40], the midpoint of inhibition in assay [1], the IC50, lay at 14 nM. On human URAT1, this compound returned an inhibition at 10 µM not below 50%.
The corresponding values for `Cc1ccn2c(-c3ccc(C(=O)O)c(O)c3)cc(C#N)c2c1` [Example 18] are 3 nM and not below 50%.
The matching figures for `Cc1ccc2c(C#N)cc(-c3ccc(C(=O)O)cc3)n2c1` [Example 5]: 10 nM and not below 50%.
The corresponding values for `N#Cc1cc(-c2ccc(C(=O)O)c(O)c2)n2cc(F)cc(F)c12` [Example 55] are 6 nM and not below 50%.
